SMILES strings stand for the structures.

For data set [1] the following is noted: approximate ratio, reportedly; cited from earlier work.
Data set [2] concerns Normal human dermal fibroblasts (NHDF-AD). The procedure: Normal human dermal fibroblasts (NHDF-AD: product of Kurabo Industries, Ltd.) were inoculated onto a 24-well plate (1.0×10^4 cells/well), and incubated for four days in 1 ml of DMEM containing 10% FBS(vol/vol). Subsequently, the supernatant of the wells was replaced with 1 ml of fresh DMEM containing 10% FBS(vol/vol), and 5 μl of ethanol solution containing a predetermined concentration of tocopherol or 5 μl of ethanol was added to the concentrations shown in Tables 1 and 2, and […] of 0.045% hydroquinone solution was added, followed by incubation for 24 hours. Then, the supernatant of the wells were removed by replacement with 1 ml of medium, and the number of cells that survived was determined by WST-1 assay.

For data set [3] the following is noted: J. Act. Oxyg. Free Rad. 3:531-54; cited from earlier work.

On to `Cc1cc(O)cc2c1O[C@](C)(CCC[C@H](C)CCC[C@H](C)CCCC(C)C)CC2` [δ-tocopherol], for which the “ratio of biological activities of α-, β-, γ-, and δ-tocopherols” value in data set [1] is around 0.1. Besides, in data set [2], the “hydroquinone-cytotoxicity-reducing activity (rank among tocopherols)” value is reported as “highest” and the “survival rate compared with Control 1” value is reported as “remarkably higher survival rate”. For the same molecule, the “antioxidant activity against oils and fats (rank)” value in data set [3] is “highest”.

In the case of `Cc1c(C)c2c(c(C)c1O)CC[C@@](C)(CCC[C@H](C)CCC[C@H](C)CCCC(C)C)O2` [α-tocopherol], the “ratio of biological activities of α-, β-, γ-, and δ-tocopherols” value in data set [1] was “approximately 100”. In addition, the “survival rate, times higher than that of Control 1” value in data set [2] is given as “more than 1.3 times”. Moreover, in data set [3], the “antioxidant activity against oils and fats (rank)” value is “lowest”.

On to `Cc1c(O)cc2c(c1C)O[C@](C)(CCC[C@H](C)CCC[C@H](C)CCCC(C)C)CC2` [γ-tocopherol], for which, in data set [1], the “ratio of biological activities of α-, β-, γ-, and δ-tocopherols” value is recorded as around 4. In addition, in data set [2], the “hydroquinone-cytotoxicity-reducing activity (rank among tocopherols)” value is on record as “second highest” and the “survival rate, times higher than that of Control 1” value is recorded as “more than 2.3 times”.

Regarding `Cc1cc(O)c(C)c2c1O[C@](C)(CCC[C@H](C)CCC[C@H](C)CCCC(C)C)CC2` [β-tocopherol], the “ratio of biological activities of α-, β-, γ-, and δ-tocopherols” value in data set [1] is recorded as around 24.

The values are drawn from US20070254947A1, “Composition for external use” (ROHTO PHARMACEUTICAL CO., LTD., priority 2006, published 2007).
